# Results from US8710224B2, “Heterocyclic compounds as CCR2B antagonists” (AstraZeneca AB, priority 2004, dated 2014).
# Target: T1, recombinant human CCR5 receptor (Homo sapiens, UniProt P51681)
# T1 construct: expressed in transfected cells; host or cells: Chinese hamster ovary (CHO) cells; membranes
# Assay: Radioligand binding assay for inhibition of the binding of MIP-1α
# Conditions: displacement of 0.1 nM iodinated MIP-1α; membranes of Chinese hamster ovary cells expressing CCR5
# Procedure: Biological Assay for the Ability of Compounds to Inhibit the Binding of MIP-1α This ability is assessed using an in vitro radioligand binding assay. Membranes are prepared from Chinese hamster ovary cells which express the recombinant human CCR5 receptor. These membranes are incubated with 0.1 nM iodinated MIP-1α, scintillation proximity beads and various concentrations of the compounds of the invention in 96-well plates. The amount of iodinated MIP-1α bound to the receptor is then determined by scintillation counting.
# T1 sequence (P51681 whole entry): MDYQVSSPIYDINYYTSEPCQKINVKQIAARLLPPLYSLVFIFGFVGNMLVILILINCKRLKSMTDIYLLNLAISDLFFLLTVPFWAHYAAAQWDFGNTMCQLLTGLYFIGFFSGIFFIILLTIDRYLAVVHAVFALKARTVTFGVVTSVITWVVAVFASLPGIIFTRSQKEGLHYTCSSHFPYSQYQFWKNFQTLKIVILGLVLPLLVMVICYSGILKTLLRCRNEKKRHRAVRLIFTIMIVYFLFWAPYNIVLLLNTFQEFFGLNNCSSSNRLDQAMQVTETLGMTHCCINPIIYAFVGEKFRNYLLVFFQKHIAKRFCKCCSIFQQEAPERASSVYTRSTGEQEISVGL
row,IC50,Structure (SMILES)
1,< 10 µM,"O=C(Nc1ccc(Cl)c(Cl)c1)N1CCN(CC2CCCN(C3CC3)C2)CC1 (stereo in doubt) [Example 139, 1-{[(3R)-1-Cyclopropylpiperidin-3-yl]methyl}-N-(3,4-dichlorophenyl)piperazine-4-carboxamide]"
2,< 10 µM,"O=C(Nc1ccccc1)N1CCN(CC2CCCN(C3CC3)C2)CC1 (stereo in doubt) [Example 183, N-Phenyl-4-{[(3R)-1-(2-cyclopropyl)piperidin-3-yl]methyl}piperazine-1-carboxamide]"
3,< 10 µM,"O=C(Nc1ccc(Cl)cc1)N1CCN(CC2CCCN(C3CC3)C2)CC1 (stereo in doubt) [Example 185, N-(4-chlorophenyl)-4-{[(3R)-1-(2-cyclopropyl)piperidin-3-yl]methyl}piperazine-1-carboxamide]"
4,< 10 µM,"CCC(C)N1CCOC(CN2CCN(C(=O)Nc3ccc(F)c(Cl)c3)CC2)C1 (stereo in doubt) [Example 236, N-(3-chloro-4-fluorophenyl)-4-({(2R)-4-[(1R)-1-methylpropyl]morpholin-2-yl}methyl)piperazine-1-carboxamide]"
5,< 10 µM,"CCCC(C)N1CCOC(CN2CCN(C(=O)Nc3ccc(F)c(Cl)c3)CC2)C1 (stereo in doubt) [Example 237, N-(3-chloro-4-fluorophenyl)-4-({(2R)-4-[(1S)-1-methylbutyl]morpholin-2-yl}methyl)piperazine-1-carboxamide]"
6,< 10 µM,"CC(Cc1ccccc1)N1CCCC(CN2CCN(C(=O)Nc3ccccc3)CC2)C1 (stereo in doubt) [Example 246, 4-[[(3R)-1-(1-methyl-2-phenyl-ethyl)-3-piperidyl]methyl]-N-phenyl-piperazine-1-carboxamide]"
7,< 10 µM,"CC(C)CC(C)N1CCOC(CN2CCN(C(=O)Nc3ccc(F)c(Cl)c3)CC2)C1 (stereo in doubt) [Example 259, N-(3-chloro-4-fluorophenyl)-4-({(2R)-4-[(1R)-1,3-dimethylbutyl]morpholin-2-yl}methyl)piperazine-1-carboxamide]"
8,< 10 µM,"O=C(Nc1ccc(Cl)c(Cl)c1)N1CCN(CC2CCCN(CC(O)c3cccc[n+]3[O-])C2)CC1 (stereo in doubt) [Example 267, N-(3,4-dichlorophenyl)-4-({(3R)-1-[2-hydroxy-2-(1-oxidopyridin-2-yl)ethyl]piperidin-3-yl}methyl)piperazine-1-carboxamide]"
9,< 10 µM,"CN1CCCC(CN2CCN(C(=O)Nc3ccccc3)CC2)C1 (centres unmarked) [Example 1, 4-[(1-methylpiperidin-3-yl)methyl]-N-phenylpiperazine-1-carboxamide]"
10,< 10 µM,"O=C(Nc1ccc(Cl)c(Cl)c1)N1CCN(C[C@@H]2CCCN(CC3CC3)C2)CC1 [Example 19, 4-{[(3R)-1-(cyclopropylmethyl)-piperidin-3-yl]methyl}-N-(3,4-dichlorophenyl)-piperazine-1-carboxamide]"
11,< 10 µM,"Cc1ccc(NC(=O)N2CCN(CC3CCCN(C)C3)CC2)cc1Cl (centres unmarked) [Example 26, N-(3-chloro-4-methylphenyl)-4-[(1-methylpiperidin-3-yl)methyl]piperazine-1-carboxamide]"
12,< 10 µM,"O=C(Nc1ccc(Cl)c(Cl)c1)N1CCN(C[C@@H]2CCCN(Cc3cc[nH]n3)C2)CC1 [Example 34, N-(3,4-dichlorophenyl)-4-{[(3S)-1-(1H-pyrazol-3-ylmethyl)-piperidin-3-yl]methyl}piperazine-1-carboxamide]"
13,< 10 µM,"CN1CCCC(CN2CCN(C(=O)Nc3cc(Cl)cc(Cl)c3)CC2)C1 (centres unmarked) [Example 41, N-(3,5-dichlorophenyl)-4-[(1-methylpiperidin-3-yl)methyl]piperazine-1-carboxamide]"
14,< 10 µM,"O=C1CN(C(=O)Nc2ccc(Cl)c(Cl)c2)CCN1CC1CCCN(Cc2ccccc2)C1 (centres unmarked) [Example 42, 4-[(1-benzylpiperidin-3-yl)methyl]-N-(3,4-dichlorophenyl)-3-oxopiperazine-1-carboxamide]"
